The record followed here is patent publication US11078170B2 (Assembly Biosciences, Inc., priority 2017, dated 2021).

For orientation: EC50 means the midpoint of the concentration-response curve.

SMILES strings stand for the structures.

This assay has as its system HBV viral production from HepAD38 cells. Briefly: Activity of test compounds on viral production from HepAD38 cells (viral load by qPCR of HBV core sequence in supernatant). Type of assay: cell-based. To be noted: Hepatitis B virus, 120 h, 5 days incubation, HBV DNA in supernatant by qPCR, top concentration 10 μM, read-out: Viral Load EC50 Activity range. As to the method: Assay Measuring Activity of Test Compounds on Viral Production from HepAD38 Cells
HepAD38 cells grown in a T-150 flask (Corning, cat #: 430825) with Growth Medium (DMEM/F12 (1:1) (Hyclone, cat #: SH30023.02), 1×Pen/Strep (Invitrogen, cat #: 15140-122), 10% FBS (Tissue Culture Biologics, cat #: 101), 250 μg/mL G418 (Alfa Aesar, cat #: J62671), 1 μg/mL Tetracycline (Teknova, cat #: T3320)) were detached with 0.25% trypsin-EDTA (Invitrogen, cat #: 25200-056). Tetracycline-free treatment medium (15 mL DMEM/F12 (1:1) 1× Pen/step, with 2% FBS, Tet-system approved (Clontech, cat #: 631106) were then added to mix, transferred into a 50 ml conical tube (Falcon, cat #: 21008-918) and spun at 1300 rpm for 5 min. Pelleted cells were then re-suspended/washed with 50 mL of 1×DPBS (Invitrogen, cat #: 14190-136) 2 times and 50 mL treatment medium twice. HepAD38 cells were then re-suspended with 10 mL of treatment medium, syringed and counted. Wells of 96-well clear bottom TC plate (Corning, cat #: 3904) were seeded at 50,000 cells/well in 180 μL of treatment medium, and 20 μL of either 10% DMSO (Sigma, cat #: D4540) as controls or a 10× solution of test compounds in 10% DMSO in treatment media was added for a final compound concentration starting at 10 μM, and plates were incubated in 5% CO2 incubator at 37° C. for 5 days.
Subsequently viral load production was assayed by quantitative PCR (qPCR) of the HBV core sequence. PCR reaction mixture containing forward primers HBV-f 5′-CTGTGCCTTGGGTGGCTTT-3′, which is SEQ ID NO 1, (IDT DNA), Reverse primers HBV-r 5′-[…]-3′, which is SEQ ID NO 2 (IDT DNA), Fluorescent TaqMan™ Probes HBV-probe 5′-FAM/AGCTCCAAA/ZEN/[…]/3IABkFQ-3′ (IDT DNA), which is SEQ ID NO 3, 10 μL/well of PerfeCTa® qPCR ToughMix® (Quanta Biosciences, Cat #: 95114-05K), and 6 µL/well of DEPC water (Alfa Aesar, cat #: J62087) was prepared. Four μL of supernatant was added to 16 μL of the reaction mixture in a qPCR plate (Applied Biosytems, Cat #: 4309849), sealed with a film (Applied Biosystems, Cat #: 4311971), centrifuged for a few seconds, and subsequently run on an Applied Biosystems VIIA7. The PCR mixture was incubated at 45° C. for 5 min, then 95° C. for 10 min, followed by 40 cycles of 10 seconds at 95° C. and 20 seconds at 60° C. Viral load was quantified against known HBV DNA standards by using ViiA™ 7 Software. Viral load in the supernatant from wells with treated cells were compared against viral load in supernatant from DMSO control wells (≥3 per plate). Cell viability assay was performed with CellTiter-Glo Luminescent Cell Viability Assay (Promega, cat #: G7573) with modification. Mixed appropriate amount of CellTiter-Glo (CTG) 1×DPBS in a 1:1 ratio, added 100 uL of the mixture to each well followed completely removal of all supernatant in each well without touching cell surface. Incubated the plate at room temperature for 10 min on an orbital shaker, and then read the plate with a plate reader (TECAN M1000 or Envision). EC50 or CC50 values were calculated through curve-fitting of the four-parameter nonlinear-logistic-regression model (GraphPad Prism or Dotmatics). CC50 values were all >10 μM.

For the compound `CN1C(C(=O)Nc2ccc(F)c(Cl)c2)CC(c2cnc(-c3ccccc3)s2)NS1(=O)=O` (stereo not shown) [HBV-CSU-235, N-(3-Chloro-4-fluorophenyl)-2-methyl-5-(2-phenylthiazol-5-yl)-1,2,6-thiadiazinane-3-carboxamide 1,1-dioxide], the EC50 is below 1000 nM.

`CN1C(C(=O)Nc2ccc(F)c(Cl)c2)CC(c2ccc(Br)cc2)NS1(=O)=O` (stereo not drawn) [HBV-CSU-202, Cis-5-(4-Bromophenyl)-N-(3-chloro-4-fluorophenyl)-2-methyl-1,2,6-thiadiazinane-3-carboxamide 1,1-dioxide]: the EC50 is below 1000 nM.

`CN1[C@@H](C(=O)Nc2ccc(F)c(Cl)c2)C[C@@H](c2ncc(-c3cn[nH]c3)s2)NS1(=O)=O` [HBV-CSU-254-ISO-II, Cis-5-(5-(1H-pyrazol-4-yl)thiazol-2-yl)-N-(3-chloro-4-fluorophenyl)-2-methyl-1,2,6-thiadiazinane-3-carboxamide 1,1-dioxide]: the 50% effective concentration (EC50) is 1000 to 5000 nM.

Regarding `[2H]C1[C@]([2H])(C(=O)Nc2ccc(F)c(Cl)c2)N(C)S(=O)(=O)N[C@]1([2H])c1ccc(-c2cn(C([2H])([2H])[2H])cn2)s1` (stereo in doubt) [HBV-CSU-376-ISO-II, Cis-N-(3-Chloro-4-fluorophenyl)-2-methyl-5-(5-(1-(methyl-d3)-1H-imidazol-4-yl)thiophen-2-yl)-1,2,6-thiadiazinane-3,4,5-d3-3-carboxamide 1,1-dioxide], the EC50 lay in the range of 1000 to 5000 nM.

As for `CN1[C@@H](C(=O)Nc2ccc(F)c(Cl)c2)C[C@@H](c2ccon2)NS1(=O)=O` [HBV-CSU-055-ISO-II, Cis-N-(3-chloro-4-fluorophenyl)-5-(isoxazol-3-yl)-2-methyl-1,2,6-thiadiazinane-3-carboxamide 1,1-dioxide], the EC50 was above 5000 nM.

As for `[2H]C([2H])([2H])N1[C@@H](C(=O)Nc2ccc(F)c(Cl)c2)C[C@@H](c2ccc(-c3cn(C([2H])([2H])[2H])cn3)s2)NS1(=O)=O` (stereo in doubt) [HBV-CSU-374-ISO-II, Cis-N-(3-Chloro-4-fluorophenyl)-2-(methyl-d3)-5-(5-(1-(methyl-d3)-1H-imidazol-4-yl)thiophen-2-yl)-1,2,6-thiadiazinane-3-carboxamide 1,1-dioxide], the 50% effective concentration (EC50) was below 1000 nM.

For `CN1C(C(=O)Nc2ccc(F)c(Cl)c2)CC(c2ccc(C#N)c(F)c2)NS1(=O)=O` (racemic) [HBV-CSU-221, Cis-N-(3-chloro-4-fluorophenyl)-5-(4-cyano-3-fluorophenyl)-2-methyl-1,2,6-thiadiazinane-3-carboxamide 1,1-dioxide], the EC50 was below 1000 nM.

As to `O=C(Nc1ccc(F)c(Cl)c1)[C@@H]1C[C@H](c2nccs2)NS(=O)(=O)N1` [HBV-CSU-096-ISO-II, Cis-N-(3-Chloro-4-fluorophenyl)-5-(thiazol-2-yl)-1,2,6-thiadiazinane-3-carboxamide 1,1-dioxide], the EC50 is below 1000 nM.

Consider `CN1[C@@H](C(=O)Nc2ccc(F)c(Cl)c2)C[C@@H](c2ncc(-c3cncs3)s2)NS1(=O)=O` [HBV-CSU-278-ISO-II, Cis-5-([5,5′-Bithiazol]-2-yl)-N-(3-chloro-4-fluorophenyl)-2-methyl-1,2,6-thiadiazinane-3-carboxamide 1,1-dioxide], for which the concentration for a half-maximal effect (EC50) is above 5000 nM.

On to `O=C(Nc1ccc(F)c(Cl)c1)[C@H]1C[C@@H](c2nccs2)NS(=O)(=O)N1CCCN1CCOCC1` [HBV-CSU-103-ISO-I], for which the concentration for a half-maximal effect (EC50) was above 5000 nM.

For the compound `CN1C(C(=O)Nc2ccc(F)c(Br)c2)CC(c2ccc(Br)s2)NS1(=O)=O` (stereo not drawn) [HBV-CSU-257, Cis-N-(3-Bromo-4-fluorophenyl)-5-(5-bromothiophen-2-yl)-2-methyl-1,2,6-thiadiazinane-3-carboxamide 1,1-dioxide], the EC50 is below 1000 nM.

On to `CCn1cc(-c2ccc(C3CC(C(=O)Nc4ccc(F)c(Cl)c4)N(C)S(=O)(=O)N3)s2)cn1` (racemic) [HBV-CSU-291, Cis-N-(3-chloro-4-fluorophenyl)-5-(5-(1-ethyl-1H-pyrazol-4-yl)thiophen-2-yl)-2-methyl-1,2,6-thiadiazinane-3-carboxamide 1,1-dioxide], for which the concentration giving a half-maximal response (EC50) was below 1000 nM.

Regarding `CSCCN1C(C(=O)Nc2ccc(F)c(Cl)c2)CC(c2nccs2)NS1(=O)=O` (racemic) [HBV-CSU-109, Cis-N-(3-Chloro-4-fluorophenyl)-2-(2-(methylthio)ethyl)-5-(thiazol-2-yl)-1,2,6-thiadiazinane-3-carboxamide 1,1-dioxide], the 50% effective concentration (EC50) is below 1000 nM.

`CN1C(C(=O)Nc2ccc(F)c(Cl)c2)CC(c2cc(Cl)c(Br)s2)NS1(=O)=O` (stereo not drawn) [HBV-CSU-329, Cis-5-(5-bromo-4-chlorothiophen-2-yl)-N-(3-chloro-4-fluorophenyl)-2-methyl-1,2,6-thiadiazinane-3-carboxamide 1,1-dioxide]: the 50% effective concentration (EC50) is below 1000 nM.

`CN(C(=O)C1CC(c2cccs2)NS(=O)(=O)N1C)c1ccc(F)c(Cl)c1` (stereo not drawn) [HBV-CSU-015, Cis-N-(3-Chloro-4-fluorophenyl)-N-2-dimethyl-5-(thiophen-2-yl)-1,2,6-thiadiazinane-3-carboxamide 1,1-dioxide]: the EC50 fell in the range of 1000 to 5000 nM.

Take `CN1[C@@H](C(=O)Nc2ccc(F)c(Cl)c2)C[C@@H](c2ccc(-c3ccc(C(F)(F)F)nc3)s2)NS1(=O)=O` [HBV-CSU-158-ISO-II, Cis-N-(3-chloro-4-fluorophenyl)-2-methyl-5-(5-(6-(trifluoromethyl)pyridin-3-yl)thiophen-2-yl)-1,2,6-thiadiazinane-3-carboxamide 1,1-dioxide]: the EC50 was above 5000 nM.

As for `CN1[C@@H](C(=O)Nc2ccc(F)c(Cl)c2)C[C@@H](c2ccc(Cl)cc2)NS1(=O)=O` [HBV-CSU-265-ISO-II], the EC50 is above 5000 nM.

Turning to `CN1C(C(=O)Nc2ccc(F)c(Cl)c2)CC(c2cc(-c3ccc(C#N)c(F)c3)cs2)NS1(=O)=O` (racemic) [HBV-CSU-164, Cis-N-(3-chloro-4-fluorophenyl)-5-(4-(4-cyano-3-fluorophenyl)thiophen-2-yl)-2-methyl-1,2,6-thiadiazinane-3-carboxamide 1,1-dioxide], the EC50 is below 1000 nM.

On to `COCCN1[C@@H](c2cccs2)C[C@@H](C(=O)Nc2ccc(F)c(Cl)c2)NS1(=O)=O` [HBV-CSU-044-ISO-II, Cis-N-(3-Chloro-4-fluorophenyl)-6-(2-methoxyethyl)-5-(thiophen-2-yl)-1,2,6-thiadiazinane-3-carboxamide 1,1-dioxide], for which the EC50 is above 5000 nM.

Regarding `CN1[C@@H](C(=O)Nc2ccc(F)c(Br)c2)C[C@@H](c2nccs2)NS1(=O)=O` [HBV-CSU-060-ISO-I, Cis-N-(3-bromo-4-fluorophenyl)-2-methyl-5-(thiazol-2-yl)-1,2,6-thiadiazinane-3-carboxamide 1,1-dioxide], the EC50 is above 5000 nM.

As for `CN1[C@@H](C(=O)Nc2ccc(F)c(Cl)c2)C[C@@H](c2ccc(-c3ccccc3)s2)NS1(=O)=O` (relative stereo) [HBV-CSU-116-ISO-II, Cis-N-(3-chloro-4-fluorophenyl)-2-methyl-5-(5-phenylthiophen-2-yl)-1,2,6-thiadiazinane-3-carboxamide 1,1-dioxide], the EC50 lay in the range of 1000 to 5000 nM.

For the compound `CN(C)CCCOc1ccc(C2CC(C(=O)Nc3ccc(F)c(Cl)c3)N(C)S(=O)(=O)N2)cc1` (racemic) [HBV-CSU-208, Cis-N-(3-chloro-4-fluorophenyl)-5-(4-(3-(dimethylamino)propoxy)phenyl)-2-methyl-1,2,6-thiadiazinane-3-carboxamide 1,1-dioxide], the EC50 was below 1000 nM.
